From ChEMBL document CHEMBL1159221, “Crystal Structure of Sandaracopimaric Acid, a Lipoxygenase Inhibitor from Juniperus phoenicea” (J Nat Prod, 1995)
Active and inactive are the calls of the source. The calls are words filed in the database; no cut-off is given here.

Tests used:
MCF7 = experiment: Growth inhibition of human MCF7 cells; type: functional, cell-based
HGT = experiment: Growth inhibition of HGT cells; type: functional, cell-based; conditions: Homo sapiens
[1] = Inhibition of soybean 15-lipoxygenase assessed as residual activity by spectrophotometry; parameters: species or system Glycine max

C=C[C@]1(C)C=C2CC[C@@H]3[C@](C)(CCC[C@@]3(C)C(=O)O)[C@H]2CC1 [SANDARACOPIMARIC ACID]
Activity (MCF7): inactive | Activity (HGT): inactive | IC50 [1]: 650 µM
